Values quoted from earlier work in patent US12357614B2, “L-ergothioneine-containing composition” (NAGASE & CO., LTD., priority 2020, dated 2025).

Key:
Escherichia coli = conditions: EGT at 5 mM and 50 mM
[1] = system: mouse bone marrow-derived macrophages; conditions: 10 mM EGT, toll-like receptor ligand stimulation
OT-II CD4^+ T cells = conditions: 30 mM EGT, co-culture with F4/80 macrophages

## C[N+](C)(C)[C@@H](Cc1c[nH]c(=S)[nH]1)C(=O)[O-] [EGT, N,N,N-trimethyl-L-2-thiohistidine]
Escherichia coli
  growth of Escherichia coli: suppresses the growth of Escherichia coli
[1]
  production of cytokines (IL-6, IL-12p40, IL-1β, IL-10): promoted
OT-II CD4^+ T cells
  Th17 polarization of OT-II CD4^+ T cells: promoted
